Test system: five species, planktonic mix of representative oral species (Actinomyces viscosus, Lactobacillus casei, Streptococcus oralis, Fusobacterium nucleatum, and …)
Assay: Resazurin bacterial inhibition assay
Assay type: cell-based
Conditions: 1% elemental Zn final concentration; 1 h incubation; resazurin fluorescence
Excerpt: The antibacterial activity of the Zn2CitCl (dizinc citrate chloride) complex was compared against zinc citrate (ZnCit) using the resazurin bacterial inhibition assay. In order to test this hypothesis, we used an assay we have developed based on the metabolic indicator dye resazurin. […] A five species, planktonic mix of representative oral species is used in this assay (Actinomyces viscosus, Lactobacillus casei, Streptococcus oralis, Fusobacterium nucleatum, and Veillonella parvula). Bacteria are incubated with the test solution for 1 h prior to staining with 50 μg/ml of resazurin solution. When viable, metabolically active bacteria are incubated with resazurin, the blue, non-fluorescent dye is reduced by the bacteria to the pink fluorescent dye resrufin. Fluorescence of test samples are read at 560 nm excitation/590 nm emission and compared to the fluorescence of standard mixes of live and dead bacteria to determine the percentage of the initial population that remained viable following treatment. Samples were tested at a final concentration of 1% elemental Zn for each compound indicated.

Point of comparison: sodium zinc citrate, “% viability” value 5.9%. Against it:
- basic sodium dizinc citrate chloride — lower, 3.3%
- basic sodium zinc citrate — higher, 7.0%

From patent US10357438B2, “Metal salt compositions” (Colgate-Palmolive Company, priority 2014, dated 2019)
